# In patent publication US20060122153A1, “Antineoplastic ether lipid compounds with modifications at the sn-2 carbon” (priority 2003, published 2006):
# “And” between values parts separate entries of the source, which are not always exact repeats. Equal entries are not always repeated.
# Columns and labels:
# NIH-3T3 = test: In vitro growth inhibition (GI50), SRB assay, normal fibroblast; type: cell-based, mouse; conditions: NIH-3T3 normal murine fibroblast cell line, 3 days
# From the text: The following cell lines were selected from the cell bank for screening and GI50 studies: MCF-7: human breast tumor, MCF-7/ADR: MCF-7 adriamycin resistant subline, HT-29: human colon carcinoma, A-549: human non-small cell lung cancer, NIH-3T3: mouse Swiss embryo fibroblast and WI-38: human lung fibroblast, SKMEL-28: human melanoma, Lewis Lung: mouse lung carcinoma, DU-145: prostate carcinoma, B16F10: mouse melanoma, L1210: murine lymphocytic leukemia, P-388: murine leukemia, U-937: human histolytic lymphoma. Except HT-29, WI-38, NIH-3T3 and Lewis Lung which were obtained from the American Type Culture Collection (Rockville, Md.) all the other cell lines were obtained from National Cancer Institute—Frederick Research Facility (Frederick, Md.). All the cell lines were grown in RPMI-1640 medium containing 10% fetal bovine serum (FBS) except WI-38 and DU-145 which were grown in EMEM+10% FBS at 37° C., 5% CO2 and 100% humidity and NIH-3T3, Lewis Lung, B16F10 and L1210 which were grown in DMEM containing 10% FBS (10% HS for L1210). […]
# The test compounds were made in-house and the compounds were dissolved PBS or saline at a stock concentration of approximately 20 mM, which is 400 times the desired final maximum test concentration. […] After 3 days of incubation, cell growth was determined.
# The SRB assay was performed as described by Monks, A., Scudiero, D., Skehan, P., Shoemaker, R., Paull, K., Vistica, D., Hose, C., Langley, J., Cronise, P., and Vaigro-Wolff, A. Feasibility of a high-flux anticancer drug screen using a diverse panel of cultured human tumo-r cell lines. […] Bound SRB was solubilized with Tris buffer (10 mM), and the ODs were read using an automated plate reader (Bio-Rad, Model 3550-UV) at 490 nm. Background values were subtracted from the test data, and the data was calculated as a % of control. […] Percentage growth was calculated as described by, Peters, A. C., Ahmad, I., Janoff, A. S., Pushkareva, M. Y., and Mayhew, E. Growth Inhibitory effects of liposome-associated 1-o-octadecyl-2-o-methyl-sn-glycero-3-phosphocholine. […]
# SK-MEL-5 = test: NCI growth inhibition screen, melanoma panel; type: cell-based, human; design: key: = means equivalent activity; + means that it appears to be significantly better (i.e., by ˜2x); < means it appears to be less active than ET18OCH3 (˜2x); a combination like =/+ or </+ means that activity is dependent upon the isomer; a combination like =/+ or </+ means that activity is dependent upon the isomer; conditions: SK-MEL-5, Melanoma; from GI50s
# Method: (§1) Candidates deemed suitable for in vivo testing were then synthesized in large scale quantities and some of this material was sent to the NCI's Developmental Therapeutics Program for a battery of growth inhibitory studies against various human tumor cell lines (60 cell lines, 9 different panels). The remainder of the material was used to assess in vivo efficacy using murine tumor models. Additionally, studies were conducted on the lead candidates to discern mechanism of action with particular emphasis on these agents apoptotic ability as measured by caspase 3 activity. The details (materials and methods) for these various assays are described further in the following discussion.
# (§2) Ten compounds were also sent to NCI's Drug Discovery Program for screening against numerous human tumor cell lines (9 panels total: renal ovarian, colon, CNS, non-small cell lung, leukemia, breast, melanoma, and prostate). The data are shown in FIGS. 2a-i which also include data regarding D- and L-ET-18-OCH3 (listed as L-EL and D-EL in the figures). Upon examining the data, one is struck by how 1R and 1a′S standout in comparison to the other compounds, especially for the renal, ovarian, colon, and CNS panels.
# UACC62 = test: NCI growth inhibition screen, melanoma panel; type: cell-based, human; design: key: = means equivalent activity; + means that it appears to be significantly better (i.e., by ˜2x); < means it appears to be less active than ET18OCH3 (˜2x); a combination like =/+ or </+ means that activity is dependent upon the isomer; a combination like =/+ or </+ means that activity is dependent upon the isomer; conditions: from GI50s
# Method: as §1, §2
# SK-MEL-28 = test: NCI growth inhibition screen, melanoma panel; type: cell-based, human; design: key: = means equivalent activity; + means that it appears to be significantly better (i.e., by ˜2x); < means it appears to be less active than ET18OCH3 (˜2x); a combination like =/+ or </+ means that activity is dependent upon the isomer; a combination like =/+ or </+ means that activity is dependent upon the isomer; conditions: SK-MEL-28, Melanoma; from GI50s
# Method: as §1, §2
# M14 = test: NCI growth inhibition screen, melanoma panel; type: cell-based, human; design: key: = means equivalent activity; + means that it appears to be significantly better (i.e., by ˜2x); < means it appears to be less active than ET18OCH3 (˜2x); a combination like =/+ or </+ means that activity is dependent upon the isomer; a combination like =/+ or </+ means that activity is dependent upon the isomer; conditions: from GI50s
# Method: as §1, §2
# UACC-257 = test: NCI growth inhibition screen, melanoma panel; type: cell-based, human; design: key: = means equivalent activity; + means that it appears to be significantly better (i.e., by ˜2x); < means it appears to be less active than ET18OCH3 (˜2x); a combination like =/+ or </+ means that activity is dependent upon the isomer; a combination like =/+ or </+ means that activity is dependent upon the isomer; conditions: UACC-257, Melanoma; from GI50s
# Method: as §1, §2
structure (smiles),measurement,setting,value
CCCCCCCCCCCCCCCCCCOC[C@@H](COP(=O)([O-])OCC[N+](C)(C)C)OS(C)(=O)=O [1a′S],GI50,NIH-3T3,30.3 µM and 35.2 µM
same,Performance as compared to ET-18-O—CH3,SK-MEL-5,0
same,Performance as compared to ET-18-O—CH3,UACC62,64
same,Performance as compared to ET-18-O—CH3,SK-MEL-28,</=
same,Performance as compared to ET-18-O—CH3,M14,0
same,Performance as compared to ET-18-O—CH3,UACC-257,0
CCCCCCCCCCCCCCCCCCOCC(COP(=O)([O-])OCC[N+](C)(C)C)OS(C)(=O)=O (stereo not drawn) [Compound 1aR],Performance as compared to ET-18-O—CH3,SK-MEL-5,=
same,Performance as compared to ET-18-O—CH3,UACC62,+
same,Performance as compared to ET-18-O—CH3,SK-MEL-28,=/+
same,Performance as compared to ET-18-O—CH3,M14,=
same,Performance as compared to ET-18-O—CH3,UACC-257,=
"CCCCCCCCCCCCCCCCCCOCC(COP(=O)([O-])OCC[N+](C)(C)C)OC [D-ET18OCH3, 1-O-octadecyl-2-O-methyl-glycerophosphocholine, reference compound]",GI50,NIH-3T3,41.4 µM
